Assay results: US9511091B2, “Rare earth metal compounds, methods of making, and methods of using the same” (Spectrum Pharmaceuticals, Inc., priority 2002, dated 2016)

Assays:
[1] = binding efficiency test, spiked water; conditions: 0.50 g in 30.0 ml spike solution, approximately 1 mg/l of each element, 18 hrs, room temperature
Description: Tests were run to determine the binding efficiency of eight different compounds for twenty-four different elements.
The main objective of the tests was to investigate the efficiency at which the compounds bind arsenic and selenium, in view of their use in removing those elements from drinking water. Twenty-one different anions were also included to explore further possibilities. The tests were performed as follows:
The compounds given in Table 6 were added to water and a spike and were vigorously shaken at room temperature for 18 hrs. The samples were filtered and the filtrate analyzed for a suite of elements including Sb, As, Be, Cd, Ca, Cr, Co, Cu, Fe, Pb, Mg, Mn, Mo, Ni, Se, Tl, Ti, V, Zn, Al, Ba, B, Ag, and P.
2. Add standard solutions of the elements given above to make solutions containing approximately 1 mg/l of each element.
1. Weigh 0.50 g of each compound into its own 50 ml centrifuge tube.
2. Add 30.0 ml of the spike solution to each.
3. Cap tightly and shake vigorously for 18 hrs.
4. Filter solution from each centrifuge tube through 0.2 µm syringe filter. Obtain about 6 ml of filtrate.
5. Dilute filtrates 5:10 with 2% HNO3. Final Matrix is 1% HNO3.

[2] = plasma lanthanum exposure in dogs (ICP-MS); type: in vivo, beagle dogs; conditions: oral capsules, 2250 mg elemental lanthanum twice daily, (standard deviation)
Description: (§1) Six adult beagle dogs were dosed orally with capsules of LaCO3OH (compound A) or La2O2CO3 (compound B) in a cross-over design using a dose of 2250 mg elemental lanthanum twice daily (6 hours apart). The doses were administered 30 minutes after provision of food to the animals. At least 14 days washout was allowed between the crossover arms. Plasma was obtained pre-dose and 1.5, 3, 6, 7.5, 9, 12, 24, 36, 48, 60, and 72 hours after dosing and analyzed for lanthanum using ICP-MS. Urine was collected by catheterization before and approximately 24 hours after dosing and creatinine and phosphorus concentrations measured.

[3] = reactivity with respect to phosphate: phosphate removal from pH 3 Na2HPO4/HCl stock solution; type: binding; conditions: for rate of removal of phosphate compared with commercial lanthanum carbonate hydrate La2(CO3)3.H2O and La2(CO3)3.4H2O: FIGS. 17, 20, 23, pH 3; for capacity of phosphate removal (PO4 removed/g of La compound) / phosphate in solution removed: after 10 min, pH 3, La 3 times the stoichiometric amount
Description: A desirable lanthanum carbonate hydroxide is LaCO3OH. […] To determine the reactivity of the lanthanum carbonate hydroxide compound with respect to phosphate, the following procedure was used. A stock solution containing 13.75 g/l of anhydrous Na2HPO4 and 8.5 g/l of HCl is prepared. The stock solution is adjusted to pH 3 by the addition of concentrated HCl. 100 ml of the stock solution is placed in a beaker with a stirring bar. A sample of lanthanum carbonate hydroxide powder is added to the solution. The amount of lanthanum carbonate hydroxide powder is such that the amount of La in suspension is 3 times the stoichiometric amount needed to react completely with the phosphate. Samples of the suspension are taken at intervals, through a filter that separated all solids from the liquid. The liquid sample is analyzed for phosphorous.
(§2) To determine the reactivity of the lanthanum compound with respect to phosphate, the following test was conducted. A stock solution containing 13.75 g/l of anhydrous Na2HPO4 and 8.5 g/l of HCl was prepared. The stock solution was adjusted to pH 3 by the addition of concentrated HCl. An amount of 100 ml of the stock solution was placed in a beaker with a stirring bar. The lanthanum oxychloride from above was added to the solution to form a suspension. The amount of lanthanum oxychloride was such that the amount of La in suspension was 3 times the stoichiometric amount needed to react completely with the phosphate. Samples of the suspension were taken at time intervals, through a filter that separated all solids from the liquid. The liquid sample was analyzed for phosphorous.
as §2, with “Lanthanum carbonate hydroxide powder made as described” for “The lanthanum oxychloride from”, “solution.” for “solution to form a suspension.”, “carbonate hydroxide powder” for “oxychloride”, “intervals” for “intervals,”
(§3) To determine the reactivity of this lanthanum compound with respect to phosphate, the following test was conducted. A stock solution containing 13.75 g/l of anhydrous Na2HPO4 and 8.5 g/l of HCl was prepared. The stock solution was adjusted to pH 3 by the addition of concentrated HCl. An amount of 100 ml of the stock solution was placed in a beaker with a stirring bar. Anhydrous lanthanum oxycarbonate made as described above, was added to the solution. The amount of anhydrous lanthanum oxycarbonate was such that the amount of La in suspension was 3 times the stoichiometric amount needed to react completely with the phosphate. Samples of the suspension were taken at intervals, through a filter that separated all solids from the liquid. The liquid sample was analyzed for phosphorous.
as §3, with “reactivity of the lanthanum compound” for “reactivity of this lanthanum compound”, “stirring bar. La2CO5 powder, made as” for “stirring bar. Anhydrous lanthanum oxycarbonate made as”, “amount of lanthanum oxycarbonate” for “amount of anhydrous lanthanum oxycarbonate”, “taken at intervals through a” for “taken at intervals, through a”

[4] = urine phosphate excretion in dogs dosed orally with capsules; type: in vivo, beagle dogs; conditions: oral capsules, 2250 mg elemental lanthanum twice daily, urine approximately 24 hours after dosing
Description: as §1
The tests led to reduction of urine phosphate excretion, a marker of phosphorous binding.

[5] = second in vivo study in rats, urinary phosphate excretion; design: species or system Sprague-Dawley rats; conditions: 0.3 or 0.6% of diet, average over days 2, 3, and 4
Text: Six young adult male Sprague-Dawley rats were randomly assigned to each group. Test items were lanthanum oxycarbonates La2O2CO3 and La2CO5 (compound B and compound C), each tested at 0.3 and 0.6% of diet. There was an additional negative control group receiving Sigmacell cellulose in place of the test item.
The test items were mixed thoroughly into Teklad 7012CM diet. All groups received equivalent amounts of dietary nutrients.
Rats were maintained in the animal facility for at least five days prior to use, housed individually in stainless steel hanging cages. On the first day of testing, they were placed individually in metabolic cages along with their test diet. Every 24 hours, their output of urine and feces was measured and collected and their general health visually assessed. The study continued for 4 days. Food consumption for each day of the study was recorded. Starting and ending animal weights were recorded.
Urine samples were assayed for phosphorus, calcium, and creatinine concentration in a Hitachi 912 analyzer using Roche reagents. Urinary excretion of phosphorus per day was calculated for each rat from daily urine volume and phosphorus concentration. […] Food consumption was good for all groups. […]

[6] = specific surface area by the BET method; type: physicochemical; conditions: one of three repeats of Example 5
Description: For each sample, the surface area measured by the BET method and the fraction of phosphate remaining after 10 min of reaction have been tabulated. […] The rate constant k1 is defined by the following equation: d[PO4]/dt=−k1[PO4]
An aqueous HCl solution having a volume of 334.75 ml and containing LaCl3 (lanthanum chloride) at a concentration of 29.2 wt % as La2O3 was added to a 4 liter beaker and heated to 80° C. with stirring. The initial pH of the LaCl3 solution was 2.2. Two hundred and sixty five ml of an aqueous solution containing 63.59 g of sodium carbonate (Na2CO3) was metered into the heated beaker using a small pump at a steady flow rate for 2 hours. Using a Buchner filtering apparatus fitted with filter paper the filtrate was separated from the white powder product. The filter cake was mixed four times, each with 2 liters of distilled water and filtered to wash away the NaCl formed during the reaction. The washed filter cake was placed into a convection oven set at 105° C. for 2 hours or until a stable weight was observed. […] The surface area of the product was determined by the BET method. The test was repeated 3 times and slightly different surface areas and different reaction rates were obtained as shown in Table 1.

Row | Compound | % Analyte Removed As [1] | % Analyte Removed Be [1] | % Analyte Removed Ca [1] | % Analyte Removed Cd [1] | % Analyte Removed Co [1] | % Analyte Removed Cr [1] | % Analyte Removed Cu [1] | % Analyte Removed Fe [1] | % Analyte Removed Mg [1] | % Analyte Removed Mn [1] | % Analyte Removed Pb [1] | % Analyte Removed Sb [1] | Maximum concentration Cmax, plasma lanthanum [2] | Mean (sd) Area Under the Curve0-72 h, plasma lanthanum [2] | rate of removal of phosphate compared with commercial lanthanum carbonate hydrate La2(CO3)3.H2O and La2(CO3)3.4H2O [3] | capacity of phosphate removal (PO4 removed/g of La compound) [3] | phosphate in solution removed [3] | Median phosphorus/creatinine ratio (% reduction compared to pre-dose value) [4] | Urinary phosphate excretion [5] | surface area of the white powder [6]
1 | O=C([O-])[O-].[La+3].[OH-] [A, lanthanum carbonate hydroxide] | 29% | 53% | 28% | 37% | 29% | 100% | 10% | 58% | 0% | 25% | 98% | 87% | 2.77 (2.1) ng/mL | 54.6 (28.0) ng-h/mL | faster | 110 mg PO4/g | 86% | 48.4% |  | 
2 | O=C([O-])[O-].[La+3].[La+3].[O-2].[O-2] [Compound B, anhydrous lanthanum oxycarbonate] | 92% | 100% | 21% | 85% | 59% | 100% | 98% | 100% | 0% | 99% | 99% | 97% | 2.45 (2.2) ng/mL | 42.7 (34.8) ng-h/mL | faster | 120 mg PO4/g | 73% | 37.0% | 2.3 mg/day | 26.95 m^2/gm
3 | lanthanum oxycarbonate [Compound C] | 93% | 100% | 0% | 83% | 52% | 100% | 97% | 100% | 0% | 99% | 99% | 96% |  |  | faster |  |  |  | 1.9 mg/day | 
